# Measured values taken from article PMC4057607 (Journal of immunology (Baltimore, Md. : 1950), 2013).
# Molecular target: soluble HLA-A*02:01 molecules (Homo sapiens, UniProt P04439, D140Y/D185E/D98H/E176V/E277Q/G131W/G231S/I119V/I121R/I166T/I218V/L300P/L318F/N151K/N90K/P208A/P217A/Q86G/Q94H/R138H/R169H/T345S)
# Test: Binding with soluble HLA-A*02:01 molecules
compound,measurement,value
CSCC[C@H](NC(=O)[C@@H](N)[C@@H](C)O)C(=O)N[C@@H](CC(C)C)C(=O)N[C@@H](CCC(=O)O)C(=O)N[C@@H](CC(=O)O)C(=O)N[C@@H](Cc1c[nH]cn1)C(=O)N[C@@H](CCC(=O)O)C(=O)N[C@@H](Cc1ccccc1)C(=O)N[C@H](C(=O)O)C(C)C [gB675–683],Kd,~95 nM
